Experimental findings from BindingDB's records for doi:10.1007/pl00005315 (Eli Lilly, 1999) are described below.

The target of test [1] is 5-hydroxytryptamine receptor 2B (Rattus norvegicus, UniProt P30994).
The target of test [2] is 5-hydroxytryptamine receptor 2A (Homo sapiens, UniProt P28223).
In test [3] the target is T1, 5-hydroxytryptamine receptor 2C (Homo sapiens, UniProt P28335).
T1 sequence (P28335 whole entry): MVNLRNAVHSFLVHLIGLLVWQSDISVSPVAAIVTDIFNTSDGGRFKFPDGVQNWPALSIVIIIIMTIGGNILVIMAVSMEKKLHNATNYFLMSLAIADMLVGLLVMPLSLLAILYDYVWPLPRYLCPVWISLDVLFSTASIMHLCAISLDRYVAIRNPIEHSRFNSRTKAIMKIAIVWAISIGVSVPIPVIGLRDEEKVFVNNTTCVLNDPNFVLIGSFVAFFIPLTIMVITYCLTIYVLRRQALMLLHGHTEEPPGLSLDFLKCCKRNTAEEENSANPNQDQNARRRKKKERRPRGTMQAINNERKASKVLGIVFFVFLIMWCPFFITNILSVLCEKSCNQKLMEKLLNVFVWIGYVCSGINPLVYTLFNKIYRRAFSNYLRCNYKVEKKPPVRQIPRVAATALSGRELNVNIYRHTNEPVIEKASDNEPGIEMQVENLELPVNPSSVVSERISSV

The target of test [4] is 5-hydroxytryptamine receptor 2B (Homo sapiens, UniProt P41595).
5-hydroxytryptamine receptor 2B (Homo sapiens, UniProt P41595), sequence (P41595 whole entry): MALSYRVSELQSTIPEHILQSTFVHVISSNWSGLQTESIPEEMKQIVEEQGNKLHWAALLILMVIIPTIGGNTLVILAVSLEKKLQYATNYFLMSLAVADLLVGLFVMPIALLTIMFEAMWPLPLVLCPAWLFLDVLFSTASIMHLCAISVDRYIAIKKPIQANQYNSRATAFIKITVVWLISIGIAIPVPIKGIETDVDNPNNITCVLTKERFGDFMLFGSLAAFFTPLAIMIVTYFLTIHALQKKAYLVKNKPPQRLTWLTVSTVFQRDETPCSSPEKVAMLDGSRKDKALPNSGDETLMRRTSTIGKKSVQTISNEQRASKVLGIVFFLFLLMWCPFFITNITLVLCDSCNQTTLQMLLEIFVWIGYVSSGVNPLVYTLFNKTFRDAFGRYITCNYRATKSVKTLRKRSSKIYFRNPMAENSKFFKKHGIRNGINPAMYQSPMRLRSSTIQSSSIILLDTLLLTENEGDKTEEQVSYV

5-hydroxytryptamine receptor 2A, sequence (P28223 whole entry): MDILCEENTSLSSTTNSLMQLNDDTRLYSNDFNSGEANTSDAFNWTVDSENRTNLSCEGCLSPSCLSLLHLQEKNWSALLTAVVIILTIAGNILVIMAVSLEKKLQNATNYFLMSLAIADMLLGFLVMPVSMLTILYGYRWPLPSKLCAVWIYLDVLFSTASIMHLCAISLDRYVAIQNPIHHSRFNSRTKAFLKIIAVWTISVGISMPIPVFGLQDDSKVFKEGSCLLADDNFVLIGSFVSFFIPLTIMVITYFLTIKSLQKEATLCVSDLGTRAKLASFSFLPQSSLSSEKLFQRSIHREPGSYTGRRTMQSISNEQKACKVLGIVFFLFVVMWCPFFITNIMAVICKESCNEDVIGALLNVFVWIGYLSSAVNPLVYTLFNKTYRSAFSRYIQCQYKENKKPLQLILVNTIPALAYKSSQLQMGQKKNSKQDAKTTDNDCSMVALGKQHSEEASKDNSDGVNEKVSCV
5-hydroxytryptamine receptor 2B (Rattus norvegicus, UniProt P30994), sequence (P30994 whole entry): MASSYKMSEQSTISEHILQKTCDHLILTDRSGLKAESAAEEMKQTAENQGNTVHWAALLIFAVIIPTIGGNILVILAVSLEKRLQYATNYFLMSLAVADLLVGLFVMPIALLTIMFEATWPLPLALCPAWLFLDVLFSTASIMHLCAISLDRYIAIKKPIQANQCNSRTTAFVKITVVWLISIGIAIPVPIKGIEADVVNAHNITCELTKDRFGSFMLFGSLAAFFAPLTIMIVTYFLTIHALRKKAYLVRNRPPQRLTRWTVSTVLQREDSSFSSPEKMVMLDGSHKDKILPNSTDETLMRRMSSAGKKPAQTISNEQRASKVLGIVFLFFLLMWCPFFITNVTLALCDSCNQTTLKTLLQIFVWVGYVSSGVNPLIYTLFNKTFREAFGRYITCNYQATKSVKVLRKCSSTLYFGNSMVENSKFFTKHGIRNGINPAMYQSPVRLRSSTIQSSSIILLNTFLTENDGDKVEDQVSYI

In general, Ki refers to a dissociation constant, usually derived from enzyme kinetics or from competition with a known ligand. Low readings indicate tighter binding, high ones weaker binding. With `CCCc1cc(OC)c(CC(C)N)cc1OC` (configuration not stated) [2-(2,5-Dimethoxy-4-propyl-phenyl)-1-methyl-ethylamine(DOPR)], the Ki in test [1] is 115 nM; in test [2] it was 0.9 nM; in test [3], 1.1 nM; in test [4] it was 54.4 nM.

Consider `COCCOCCl` [CAS_3970-21-6], for which the Ki in test [1] was 1130 nM; in test [2], 73 nM; in test [3], 124 nM; in test [4], 763 nM.

With `CCCCCCc1cc(OC)c(CC(C)N)cc1OC` (configuration not stated) [DOHx], the inhibition constant (Ki) in test [1] is 49 nM; in test [2] it was 0.1 nM; in test [3], 0.7 nM; in test [4], 30.3 nM.

On to `COc1cc(CC(C)N(C)C)c(OC)cc1Br` (configuration not stated) [M-154], for which the Ki in test [1] was 683 nM; in test [2] it was 94.2 nM; in test [3], 68.1 nM; in test [4], 341 nM.

In test [4], `COc1cc(CC(C)N)c(OC)cc1Br` (stereo not drawn) [2-(4-Bromo-2,5-dimethoxy-phenyl)-1-methyl-ethylamine((-)-DOB)] had a Ki of 26.9 nM.

On to `COc1cc(CC(C)N)c(OC)cc1Cc1ccccc1` (configuration not stated), for which the inhibition constant (Ki) in test [1] is 53.8 nM; in test [2], 0.4 nM; in test [3], 1 nM; in test [4] it was 35 nM.

As for `COc1ccc(OC)c(CC(C)N)c1` (configuration not stated) [2-(2,5-Dimethoxy-phenyl)-1-methyl-ethylamine], the inhibition constant (Ki) in test [3] is 104 nM; in test [4] it was 1040 nM.

For `CCCNC(C)Cc1cc(OC)c(Br)cc1OC` (configuration not stated), the values for the Ki in test [1], in test [3] and in test [4] were 976 nM, 514 nM and 521 nM, respectively.

For `COc1cc(CC(C)N)c(OC)cc1C#N` (configuration not stated), the Ki worked out at 877 nM in test [1], 45.7 nM in test [2], 1010 nM in test [3] and 774 nM in test [4].

On to `COc1cc(CC(C)[N+](C)(C)C)c(OC)cc1Br` (configuration not stated) [N,N,N-trimethyl-1-(4-bromo-2,5-dimethoxyphenyl)-2-aminopropane], for which the Ki in test [1] is greater than 10000 nM; in test [2], 2150 nM; in test [3], 6300 nM; in test [4] it was greater than 10000 nM.

Take `COc1cc(C(C)=O)c(OC)cc1CC(C)N` (configuration not stated) [1-(4-acetyl-2,5-dimethoxyphenyl)-2-aminopropane]: the Ki in test [1] was 947 nM; in test [2], 80.5 nM; in test [3], 91.3 nM; in test [4], 313 nM.

As for `COc1cc(C(C)(C)C)c(OC)cc1CC(C)N` (configuration not stated) [DOTB], the Ki in test [1] came out at 49.6 nM; in test [2], 3.7 nM; in test [3], 2.2 nM; in test [4], 24.6 nM.

With `COc1cc([N+](=O)[O-])c(OC)cc1CC(C)N` (configuration not stated) [DON], the Ki in test [1] was determined as 248 nM; in test [2] it was 5.5 nM; in test [3], 22.4 nM; in test [4], 166 nM.

With `COc1cc(CC(C)N)c(OC)cc1F` (configuration not stated), the Ki in test [1] turned out to be 306 nM; in test [2], 41.7 nM; in test [3], 28.7 nM; in test [4], 227 nM.

For the compound `COc1cc(CC(C)N)cc(OC)c1OC` (configuration not stated), the results for the Ki in test [1], in test [2] and in test [4] were 187 nM, 57.9 nM and 307 nM, respectively.

With `C[C@]12CC[C@H]3[C@@H](CCC4=CC(=O)CC[C@@]43C)[C@@H]1CC[C@@H]2C(=O)CO` [(1S,2R,10S,11S,14S,15S)-14-(2-hydroxyacetyl)-2,15-dimethyltetracyclo[8.7.0.0^{2,7}.0^{11,15}]heptadec-6-en-5-one], the Ki in test [1] is 26.8 nM; in test [2], 1.4 nM; in test [3] it was 2 nM; in test [4] it was 31.8 nM.
